Where two headings read alike, the source gives them in different places.
Experiments:
Assay type in all cases: cell-based
LU-01-0025 = assay: Cell viability, lung PDX LU-01-0025
Protocol: (§1) PDX-derived cell cultures were obtained from tumors explanted from mice and isolated by mechanical and enzymatic dissociation. […] Cells were harvested and seeded in 96-wells plates at a density of 1.25 to 5×10^3 cells/well for cytotoxicity assays. Cells were incubated 48 h at 37° C. prior to addition of test molecules and vehicle (DMSO, 0.1%) at desired final concentrations. Cell viability was assessed before drugs' addition (To) and 5 days after test molecules addition by measuring ATP cell content using CellTiter-Glo® Luminescent Cell Viability Assay (Promega) according to the manufacturer's instructions. Luciferase activity was measured on a luminometer (PerkinElmer® EnVision™). Each concentration of compounds was tested in triplicate.
(§2) Viability was calculated as a percentage of ATP value compared to vehicle treated controls.
(§3) For PDX primary cell cultures, the tumour tissue was washed with PBS containing antibiotic-antimycotic and non-tumour tissue and necrotic tumour tissues were separated. The tumour tissue was transferred to a new dish and cut into 1˜2 mm^3 fragments, resuspended in RPMI-1640 medium and centrifuged at 1,200 rpm for 6 min at room temperature. The pelleted material was resuspended with 15 mL of Tumour Cell Digestion Solution and incubated at 37° C. for 1 hour with agitation. […]

CH-17-0091 = assay: Cell viability, bile duct PDX CH-17-0091
Protocol: as §1, §2, §3

HCT-116 = assay: Cell viability assay, HCT-116; details: colon carcinoma cell line HCT-116
Protocol: (§4) Antitumor activity of the compounds and doxorubicin as a positive control was assessed by using the CellTiter-Blue Cell Viability Assay (Promega, #G8082) or CellTiter-Glow® Luminescent Cell Viability assay (Promega #G7572) according to the manufacturer's instructions. The compounds were tested at 5 or 6 concentrations in half-log increments (highest concentration 30 μM or 100 μM) in duplicate or triplicate well conditions.
(§5) Tumor cells were grown at 37° C. in a humidified atmosphere with 5% CO2 in RPMI 1640 or DMEM medium, supplemented with 10% (v/v) fetal calf serum and 50 μg/ml gentamicin for up to 20 passages, and were passaged once or twice weekly. Cells were harvested using TrypLE or PBS buffer containing 1 mM EDTA, and the percentage of viable cells was determined using a CASY Model TI cell counter (OMNI Life Science). Cells were harvested from exponential phase cultures, counted and plated in 96 well flat-bottom microtiter plates at a cell density depending on the cell line's growth rate (4,000-20,000 cells/well depending on the cell line's growth rate, up to 60,000 for hematological cancer cell lines) in RPMI 1640 or DMEM medium supplemented with 10% (v/v) fetal calf serum and 50 μg/ml gentamicin (140 μl/well). […] Viability of cells was quantified by the CellTiter-Blue® cell viability assay (Promega G8081) or CellTiter-Glow® Luminescent Cell Viability assay (Promega #G7572). […]

MCF-7 = assay: Cell viability assay, MCF-7; details: breast carcinoma cell line MCF-7
Protocol: as §4, §5

OVXF 899 = assay: Cell viability assay, OVXF 899; details: ovarian carcinoma OVXF 899
Protocol: as §4, §5

PC-07-0045 = assay: Cell viability, pancreatic PDX PC-07-0045
Protocol: as §1, §2, §3

KI-12-0062 = assay: Cell viability, kidney PDX KI-12-0062
Protocol: as §1, §2
(§6) For PDX primary cell cultures, the tumour tissue was washed with PBS containing antibiotic-antimycotic and non-tumour tissue and necrotic tumour tissues were separated. The tumour tissue was transferred to a new dish and cut into 1˜2 mm^3 fragments, resuspended in RPMI-1640 medium and centrifuged at 1,200 rpm for 6 min at room temperature. The pelleted material was resuspended with 15 mL of Tumour Cell Digestion Solution and incubated at 37° C. for 1 hour with agitation. Following further addition of media, centrifugation and passage through a 70 μm cell strainer, the homogenous cell mixture was layered onto 15 mL of Ficoll-Paque PLUS in a 50 mL conical tube and centrifuged for 15 min at 1,600 rpm. The interface cells were collected, washed with media, separated by centrifugation at 1,200 rpm. The cell pellet was resuspended in serum free media supplemented with growth factors. 10,000 cells/wells were plated in a 96 well plate and incubated at 37° C., 5% CO2, 95% air and 100% relative humidity overnight. The cytotoxicity assay was conducted as above.
(§7) Sigmoidal concentration-response curves were fitted to the data points (test-versus-control, T/C values) obtained for each tumor model using GraphPad prism 5.02 software.

BR-05-0399 = assay: Cell viability, breast PDX BR-05-0399
Protocol: as §1, §2, §3

ST-020012 = assay: Cell viability, stomach PDX ST-020012
Protocol: as §1, §2, §3

ME-21-0028 = assay: Cell viability, skin melanoma PDX ME-21-0028
Protocol: as §1, §2, §6, §7

HL-60 = assay: Cell viability assay, HL-60
Protocol: as §4
Tumor cells were grown at 37° C. in a humidified atmosphere with 5% CO2 in RPMI 1640 or DMEM medium, supplemented with 10% (v/v) fetal calf serum and 50 μg/ml gentamicin for up to 20 passages, and were passaged once or twice weekly. Cells were harvested using TrypLE or PBS buffer containing 1 mM EDTA, and the percentage of viable cells was determined using a CASY Model TI cell counter (OMNI Life Science). Cells were harvested from exponential phase cultures, counted and plated in 96 well flat-bottom microtiter plates at a cell density depending on the cell line's growth rate (4,000-20,000 cells/well depending on the cell line's growth rate, up to 60,000 for hematological cancer cell lines) in RPMI 1640 or DMEM medium supplemented with 10% (v/v) fetal calf serum and 50 μg/ml gentamicin (140 μl/well). Cultures were incubated at 37° C. and 5% CO2 in a humidified atmosphere. After 24 h, 10 μl of test compounds or control medium were added and left on the cells for another 72 h. Compounds were serially diluted in DMSO, transferred in cell culture medium, and added to the assay plates. The DMSO concentration was kept constant at <0.3% v/v across the assay plate. Viability of cells was quantified by the CellTiter-Blue® cell viability assay (Promega G8081) or CellTiter-Glow® Luminescent Cell Viability assay (Promega #G7572). Fluorescence (FU) was measured by using the EnSpire® multimode plate reader (Perkin Elmer) (excitation λ=570 nm, emission λ=600 nm) Luminescence was measured with a microplate luminometer (Promega or PerkinElmer). […]

LU-01-0010 = assay: Cell viability, lung PDX LU-01-0010
Protocol: as §1, §2, §3

ES-06-0122 = assay: Cell viability, esophagus PDX ES-06-0122
Protocol: as §1, §2, §3

PC-3 = assay: Cell viability assay, PC-3; details: prostate carcinoma cell line PC-3
Protocol: as §4, §5

LU-01-0004 = assay: Cell viability, lung PDX LU-01-0004
Protocol: as §1, §2, §3

ST-02-0007 = assay: Cell viability, stomach PDX ST-02-0007
Protocol: as §1, §2, §3

CO-04-0701 = assay: Cell viability, colon PDX CO-04-0701
Protocol: as §1, §2, §3

HT-29 = assay: Cell viability assay, HT-29; details: colon carcinoma cell line HT-29
Protocol: as §4, §5

ST-02-0322 = assay: Cell viability, stomach PDX ST-02-0322
Protocol: as §1, §2, §3

PC-07-0059 = assay: Cell viability, pancreatic PDX PC-07-0059
Protocol: as §1, §2, §3

[1] = kidney PDX KI-12-0062, read-out: IC50
[2] = skin melanoma PDX ME-21-0028, read-out: IC50

Structure (SMILES) | IC50 (LU-01-0025) [µM] | IC50 (CH-17-0091) [µM] | IC50 (OVXF 899) [µM] | IC50 (PC-07-0045) [µM] | IC50 (KI-12-0062; [1]) [µM] | IC50 (BR-05-0399) [µM] | IC50 (ST-020012) [µM] | IC50 (ME-21-0028; [2]) [µM] | IC50 (LU-01-0010) [µM] | IC50 (ES-06-0122) [µM] | IC50 (LU-01-0004) [µM] | IC50 (ST-02-0007) [µM] | IC50 (CO-04-0701) [µM] | IC50 (ST-02-0322) [µM] | IC50 (PC-07-0059) [µM] | other results
COc1c(O)ccc2c(=O)c(O)c(-c3ccc(CCCC[P+](c4ccccc4)(c4ccccc4)c4ccccc4)cc3)oc12 [SND190, (4-(4-(3,7-Dihydroxy-8-methoxy-4-oxo-4H1-chromen-2-yl)phenyl)butyl)triphenylphosphonium bromide] | 0.6 | 4 | 8.76 | 3.4 | 15.1 | 5.4 | 4.5 | 2.2 | 1.1 | 6.5 | 5.4 | 5.7 | 14.7 | 6.3 | 2.3 | IC50 (HCT-116; Homo sapiens): 0.81 µM; IC50 (MCF-7; Homo sapiens, MCF7): 3.91 µM; IC50 (KI-12-0062; text summary of Table 11 (kidney PDX), read-out: IC50, kidney PDX growth): < 20 µM; IC50 (ME-21-0028; text summary of Table 21, read-out: IC50, skin melanoma PDX growth): < 20 µM; IC50 (HL-60; Homo sapiens, HL-60, summary of Table 12, read-out: IC50, leukaemia cell growth): < 1 µM; IC50 (HL-60; Homo sapiens, leukaemia cell line HL-60, read-out: IC50): 0.3 µM; IC50 (PC-3; Homo sapiens): 1.69 µM; IC50 (HT-29; Homo sapiens): 5.78 µM
O=c1cc(-c2ccc(CCC[P+](c3ccccc3)(c3ccccc3)c3ccccc3)cc2)oc2c(O)c(O)ccc12 [SND200, (3-(4-(7,8-Dihydroxy-4-oxo-4H1-chromen-2-yl)phenyl)propyl)triphenylphosphonium bromide] | 4.9 | 9.5 | 6.37 | 2.3 | 14.5 | 14.9 | 8.8 | 10.9 | 10 | 8.8 | 9.8 | 9.4 | 15.1 | 8.5 | 6.7 | IC50 (HCT-116): 1.48 µM; IC50 (MCF-7): 1.68 µM; IC50 (HL-60; leukaemia cell line HL-60, read-out: IC50): 0.3 µM; IC50 (PC-3): 0.3 µM; IC50 (HT-29): 3.31 µM

Reference: US20240124503A1, “HETEROAROMATIC PHOSPHONIUM SALTS AND THEIR USE TREATING CANCER” (FLORATEK PHARMA S.A., priority 2021, published 2024)
